Test results: patent US9981999B2, “Neprilysin inhibitors” (THERAVANCE BIOPHARMA R&D IP, LLC, priority 2012, dated 2018)

Target: T1, human neprilysin (EC 3.4.24.11; NEP) (Homo sapiens, UniProt P08473)
T1 construct: purchased R&D Systems, Minneapolis, MN 1182-ZN
Test: In vitro enzyme inhibition assay at human NEP (fluorogenic peptide substrate)
Assay type: biochemical
Settings: recombinant human NEP; fluorogenic substrate Mca-D-Arg-Arg-Leu-Dap-(Dnp)-OH; 37° C., pH 7.5; read-out: pKi value at human NEP (converted)
Method: The inhibitory activities of compounds at human and rat neprilysin (EC 3.4.24.11; NEP) and human angiotensin converting enzyme (ACE) were determined using in vitro assays as described below.
Recombinant human NEP and recombinant human ACE were obtained commercially (R&D Systems, Minneapolis, MN, catalog numbers 1182-ZN and 929-ZN, respectively). The fluorogenic peptide substrate Mca-D-Arg-Arg-Leu-Dap-(Dnp)-OH (Medeiros et al. (1997) Braz. J. Med. Biol. Res. 30:1157-62; Anaspec, San Jose, Calif.) and Abz-Phe-Arg-Lys(Dnp)-Pro-OH (Araujo et al. (2000) Biochemistry 39:8519-8525; Bachem, Torrance, Calif.) were used in the NEP and ACE assays respectively.
The assays were performed in 384-well white opaque plates at 37° C. using the fluorogenic peptide substrates at a concentration of 10 µM in Assay Buffer (NEP: 50 mM HEPES, pH 7.5, 100 mM NaCl, 0.01% polyethylene glycol sorbitan monolaurate (Tween-20), 10 μM ZnSO4; ACE: 50 mM HEPES, pH 7.5, 100 mM NaCl, 0.01% Tween-20, 1 μM ZnSO4).
Test compounds were assayed over the range of concentrations from […] to 20 μM. Test compounds were added to the enzymes and incubated for 30 minute at 37° C. prior to initiating the reaction by the addition of substrate. […]
Plates were read on a fluorometer with excitation and emission wavelengths set to 320 nm and 405 nm, respectively. […]

T1 sequence (P08473 52-750 limits assumed): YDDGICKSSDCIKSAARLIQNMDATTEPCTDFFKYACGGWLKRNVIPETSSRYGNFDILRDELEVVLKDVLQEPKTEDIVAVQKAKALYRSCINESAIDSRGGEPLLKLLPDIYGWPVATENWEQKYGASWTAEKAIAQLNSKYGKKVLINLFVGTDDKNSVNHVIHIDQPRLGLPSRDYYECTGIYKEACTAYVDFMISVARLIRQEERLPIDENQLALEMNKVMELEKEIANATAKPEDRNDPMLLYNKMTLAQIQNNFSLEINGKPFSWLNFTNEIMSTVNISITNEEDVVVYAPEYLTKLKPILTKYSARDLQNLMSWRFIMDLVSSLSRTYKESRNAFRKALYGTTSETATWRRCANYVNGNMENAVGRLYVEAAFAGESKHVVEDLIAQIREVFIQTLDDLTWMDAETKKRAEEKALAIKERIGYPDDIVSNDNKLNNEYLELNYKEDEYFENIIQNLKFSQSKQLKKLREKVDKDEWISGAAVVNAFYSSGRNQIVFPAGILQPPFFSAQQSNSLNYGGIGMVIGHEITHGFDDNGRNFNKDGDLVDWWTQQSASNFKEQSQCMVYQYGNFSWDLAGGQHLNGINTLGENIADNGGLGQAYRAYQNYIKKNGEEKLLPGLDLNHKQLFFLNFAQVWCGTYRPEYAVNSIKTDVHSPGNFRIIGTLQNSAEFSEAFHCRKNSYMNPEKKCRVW

Ki: ≤ 1 nM
Structure (SMILES): CC(=O)c1cc(C(=O)NN(Cc2ccc(-c3cc(Cl)ccc3F)cc2)C[C@@H](O)C(=O)O)[nH]n1 [Example 6A, (R)-3-[N′-(5-Acetyl-2H-pyrazole-3-carbonyl)-N-(5′-chloro-2′-fluorobiphenyl-4-ylmethyl)hydrazino]-2-hydroxypropionic Acid]
